From patent US20040014814A1, “Compositions and methods for delaying preventing rejuvenating or reversing senescence in cells” (priority 2000, published 2004)

What was measured:
MRC-5 cells [1] = test: Effect of carnosine derivatives on cell growth / toxicity in MRC-5 cell cultures; format: cell-based, human; set-up: key to Effect on cell growth (score): (0) Toxic to cell growth; (10) Confluent cell growth; details: for Effect on cell growth (score): MRC-5 cells, scale 0 toxic to 10 confluent; for Cell Growth: summary grade
Description: (§1) MRC -5 cells (fetal lung fibroblasts) were grown in Dulbecco's modification of Eagles' minimum essential medium (DMEM Gibco BRL Cat. No. 12800-017) containing 0.45% glucose, or MEM (Gibco BRL Cat. No. 612800-017) containing 0.1% glucose. Both media contained 10% fetal calf scrum (TRACE Biosciences Cat. No. 15-010-0500V) and Penicillin/Streptomycin 5000 IU, 5000 μg/ml (TRACE Biosciences Cat. No. 21-140-0100V). Cells were grown in […] flasks or in dishes (35 mm or 60 mm, Nunc) at 37° C. with 5% CO2. Cells were harvested with trypsin (TRACE Biosciences Cat. No. 21-163-0100V) and counted with a model ZF6 Coulter Counter. Cells were split in ratios of 1:2 or 1:4. Population doublings (PDs) were calculated from the ratio of the initial number of cells plated to the yield of cells after a period of time. This provides an accurate measure of cell growth, with the split ratios 1:2 and 1:4 corresponding to one and two passages respectively, which are broadly equivalent to population doublings. The media was changed every 5 days or when cells became confluent.
MRC-5 cells were used to observe the toxicity of a series of derivatives of carnosine on cell growth. Cell cultures were grown in DMEM media with 10% fetal calf serum and supplemented with the following carnosine analogues: carnosine ethyl ester, carnosine iso-propyl ester, carnosine n-butyl ester, carnosine n-hexyl ester, N-propyl carnosine, N-hexanoyl carnosine, N-trimethyl acetyl carnosine, N-acetyl carnosine methyl ester, N-acetyl carnosine ethyl ester and N-acetyl carnosine, […] Cells were also grown in DMEM supplemented with carnosine at 20 mM. […] Even at lower concentrations cell morphology was that of cells that have reached senescence i.e. broad flat cells with long process reaching out to other cells. Cell numbers were less than in the control flasks. […] As shown in FIG. 1 Acetyl-carnosine achieved a lifespan 5 PDs greater than the control and 6.7 PDs greater than carnosine over a 43 day period. […] In the early phase of the experiment growth rates were markedly greater than with the other compounds (FIG. 1).

MRC-5 cells [2] = test: Uptake of radio-labeled (3H) compounds by MRC-5 fibroblast cells; details: MRC-5 cells, after 48 hours
Description: For MRC-5 cells, (3H)—carnosine and acetyl carnosine were added to the medium of near confluent 60mm culture dishes. At different time points cells were washed three times with phosphate buffered saline, cells harvested and cell-associated radioactivity determined using Packard Starscint scintillation fluid.
The rate of uptake of carnosine and acetyl-carnosine by MRC-5 cells was studied using radio-labeled tritiated (3H) carnosine and acetyl-carnosine compounds. The uptake was measured in MRC-5 cells at passage 28 over a 48 hour period (FIG. 3A).

MRC-5 cells [3] = details: carnosine supplemented media; cited from earlier work
[4] = Fate of compound after cellular uptake; format: cell-based; details: compared with acetyl-carnosine
Description: Experiments were conducted to determine the fate of acetyl-carnosine and carnosine after cellular uptake. […] A slower metabolism and incorporation into other proteins may be one reason for acetyl-carnosine having higher effective intracellular concentrations compared with carnosine despite its lower overall uptake.

[5] = system: UV-Induced Immuno-suppression; set-up: key: 0 = zero effect; 10 = maximum effect; details: footnote (3) Australian provisional PQ 5150; cited from earlier work
senescent MRC-5 cells = details: 20 mM; PCT/AU91/00541; cited from earlier work
MRC-5 cells [6] = test: Lifespan (population doublings) of MRC-5 cells in culture; format: cell-based, human; set-up: key to Lifespan extension: 0 = zero effect; 10 = maximum effect; details: for Lifespan of MRC-5 cells in culture, Population Doublings (PD): commenced at passage 55; for Lifespan extension: summary grade
Description: Cultures were split in a 1:4 ratio when flasks were approximately 70-80% confluent.
as §1
MRC-5 cells were used to observe the toxicity of a series of derivatives of carnosine on cell growth. Cell cultures were grown in DMEM media with 10% fetal calf serum and supplemented with the following carnosine analogues: carnosine ethyl ester, carnosine iso-propyl ester, carnosine n-butyl ester, carnosine n-hexyl ester, N-propyl carnosine, N-hexanoyl carnosine, N-trimethyl acetyl carnosine, N-acetyl carnosine methyl ester, N-acetyl carnosine ethyl ester and N-acetyl carnosine, at concentrations ranging between 1 mM to 20 mM. Cells were also grown in DMEM supplemented with carnosine at 20 mM. […] Even at lower concentrations cell morphology was that of cells that have reached senescence i.e. broad flat cells with long process reaching out to other cells. Cell numbers were less than in the control flasks. […] As shown in FIG. 1 Acetyl-carnosine achieved a lifespan 5 PDs greater than the control and 6.7 PDs greater than carnosine over a 43 day period. […] In the early phase of the experiment growth rates were markedly greater than with the other compounds (FIG. 1).
In fact all populations of MRC-5 cells grown in DMEM supplemented with acetyl-carnosine preserved a younger phenotype for much longer than cells grown in DMEM supplemented with carnosine or its analogues.
Under control conditions the range was 57.3-64.5 PDs (n=5). With the addition of carnosine (20mM) to the medium the range was 61.8-63.7 PDs (n=5) with an average increase of 1.4 PDs which represents a 3 fold increase in cell number. However, when acetyl-carnosine (5 mM) was added to the medium, the range was 62.3-70.3 PDs (n=5) with an average increase of 5 PDs compared with the controls. This represents a 32 fold increase in cell number.

MRC-5 cells [7] = system: MRC-5 cells; set-up: Cell and eye uptake assay: key to the marks not given beside the values
human blood peptidases = test: Stability in human blood serum / attack by human blood peptidases; format: in vitro ADME; details: human blood serum
corneal epithelial cells = test: Uptake of radio-labeled (3H) compounds in fresh bovine eyes (corneal epithelium into aqueous humour); format: in vitro ADME; details: after 4 hours
Description: Radio-labeled (3H) carnosine and acetyl-carnosine were assayed for their rate of uptake using fresh bovine eyes and MRC-5 fibroblast cultures. For bovine eyes small cylinders (radius 3.5mm and height 8mm) placed on top of the eye formed a fix seal with the corneal epithelial cells. 200 microlitres of the radio-labeled compounds in 5mM unlabeled compound in phosphate buffered saline were instilled onto the eye and at different time points 600 μl of aqueous humour was aspirated using a 25 gauge needle for counting in the scintillation counter.
The uptake experiments were repeated using fresh bovine eyes.

Compound | Effect on cell growth (score) (MRC-5 cells [1]; 2 mM) | Effect on cell growth (score) (MRC-5 cells [1]; 5 mM) | Effect on cell growth (score) (MRC-5 cells [1]; 10 mM) | Effect on cell growth (score) (MRC-5 cells [1]; 20 mM) | Cell Growth (MRC-5 cells [1]) | Effect on cell growth (score) (MRC-5 cells [1]; 0.5 mM) | Effect on cell growth (score) (MRC-5 cells [1]; 1 mM) | Lifespan of MRC-5 cells in culture, Population Doublings (PD) (MRC-5 cells [6]; 5 mM) | Lifespan extension (MRC-5 cells [6]) | further results
CCOC(=O)[C@H](Cc1cnc[nH]1)NC(=O)CCN [Carnosine ethyl ester, carnosine ethyl ester] | 5 | 5 | 4 | 3 | – | – | – | – | – | –
CC(C)OC(=O)[C@H](Cc1cnc[nH]1)NC(=O)CCN [Carnosine iso-propyl ester, carnosine iso-propyl ester] | 2 | 0 | 0 | 0 | TOXIC | – | – | – | – | –
CCCCOC(=O)[C@@H](Cc1cnc[nH]1)NC(=O)CCN [Carnosine n-butyl ester, carnosine n-butyl ester] | 5 | 5 | 2 | 0 | TOXIC | – | – | – | – | –
NCCC(=O)N[C@@H](Cc1cnc[nH]1)C(=O)O [Carnosine, β-alanyl-L-histidine, reference compound] | – | 5 | 6 | 7 | – | – | – | – | – | Number of cells growing in supplemented media (MRC-5 cells [2]): 2.4×10^6; Increase in cell mass reported by McFarland & Holliday (MRC-5 cells [3]): 12 fold; Incorporation of label into higher molecular weight proteins after uptake [4]: more rapidly incorporated into higher molecular weight proteins; UV immuno suppression: post irradiation assay (3) [5]: 0; Effect on senescent MRC-5 cells transferred to supplemented medium (senescent MRC-5 cells): rejuvenated; Range of lifespans of populations of MRC-5 cells (MRC-5 cells [6]; 20 mM in medium, n=5): 61.8-63.7 PDs; Lifespan of MRC-5 cells in culture, Population Doublings (PD) (MRC-5 cells [6]; 20 mM): 8.5 PD; Average increase in lifespan compared with controls (MRC-5 cells [6]; 20 mM, n=5): 1.4 PDs; Increase in cell number (MRC-5 cells [6]; 20 mM, worked out from the PD increase): 3 fold; Increase in cell mass (MRC-5 cells [6]; cells exposed to supplemented media): 3 fold; Cell and eye uptake assay (MRC-5 cells [7]): ++++; Uptake of (3H) compound by MRC-5 cells (MRC-5 cells [7]; human, 48 h): 0.32%; Uptake relative to acetyl-carnosine (MRC-5 cells [7]; human, 48 h): 2 times; Stability in human blood serum (human blood peptidases): rapidly destroyed; Uptake of (3H) compound into aqueous humour (corneal epithelial cells): 1.3%; Uptake relative to acetyl-carnosine (corneal epithelial cells): 2 times
CCOC(=O)C(Cc1cnc[nH]1)NC(=O)CCNC(C)=O (centres unmarked) [N-acetyl carnosine ethyl ester] | 4 | 4 | 2 | 0 | – | 6 | 5 | – | – | –
COC(=O)C(Cc1cnc[nH]1)NC(=O)CCNC(C)=O (centres unmarked) [N-acetyl carnosine methyl ester] | 5 | 5 | 5 | 0 | – | 6 | 6 | – | – | –
CCCCCC(=O)NCCC(=O)N[C@@H](Cc1c[nH]cn1)C(=O)O [N-hexanoyl carnosine] | 5 | 4 | 3 | 3 | – | 6 | 6 | 10.8 | 0 | –
CC(C)(C)C(=O)NCCC(=O)NC(Cc1cnc[nH]1)C(=O)O (centres unmarked) [N-trimethyl acetyl carnosine] | 5 | 4 | 3 | 3 | – | 6 | 6 | 9.4 | 0 | –
CCCCCCOC(=O)[C@H](Cc1c[nH]cn1)NC(=O)CCN [carnosine n-hexyl ester] | 3 | 1 | 0 | 0 | TOXIC | – | – | – | – | –
N-propyl carnosine | 5 | 4 | 3 | 2 | – | 6 | 6 | 11.0 | 0 | –
